Test results reported in patent EP0703239A1, “Aminomethylphosphonic and aminomethylphosphinic acids derivatives and their use in the treatment of degenerative articular diseases” (priority 1994, dated 1996).
Structures can show the parent of a compound that is named as a salt. Where two headings read alike, the source gives them in different places.

Experiments:
[1] = system: Matrix Metalloproteasen (MMP); experiment: Inhibition of matrix metalloproteases from supernatant of PMA-induced synoviocytes, fluorogenic substrate; type: biochemical, Kaninchen
From the text: 3. Inhibierung von Matrix Metalloproteasen (MMP)
Die erfindungsgemäßen Verbindungen zeigten deutliche inhibitorische Wirkungen auf proteolytische Enzyme, die sogenannten Matrix Metalloproteasen. Dies ist von großer Bedeutung, weil diese dem Fachmann an sich bekannten Enzyme am proteolytischen Abbau der intakten Knorpelmatrix entscheidend beteiligt sind.
Kaninchen Synoviocyten (HIG-82; ATCC, Rockville, Maryland, USA) werden in Nährmedium HAM'S F12 (Sigma, Deisenhofen, Deutschland, Katalog Nr. N-6760) mit 10 % fötalem Rinder Serum (Sigma, Deisenhofen, Deutschland, Katalog Nr. F-2442), zusammen mit Penicillin 100 U/ml sowie Streptomycin 100 µg/ml, kultiviert. Nach konfluentem Zellwachstum wird die MMP Expression in serumfreiem HAM'S F12 durch Zugabe von 0,3 µmol/l Phorbol-12-Myristat-13-Acetat induziert. Nach 20 h Inkubationszeit bei 37°C wird der Überstand abgenommen.
Der Überstand wird mit Trypsin (5 µg/ml) aktiviert. Nach 15 Minuten (min) bei 37°C wird die Aktivierung durch Zugabe von 1 mmol/l Phenylmethylsulfonylfluorid (PMSF) beendet und für weitere 10 min nachinkubiert. Das Gesamtvolumen des Ansatzes beträgt 210 µl.
Messung der MMP Aktivität (Lit.: C.G. Knight et al.; FEBS Lett. 296, 263 (1992)):
20 µl des obengenannten Überstandes werden 1:10 verdünnt, und mit 240 µl Puffer (0,1 Tris/HCl pH 7,5; 0,1 M NaCl; 0,01 M CaCl₂; 0,05 % Brij) gemischt. Die Prüfsubstanz wird in der angegebenen Konzentration (s. Tabelle) zugegeben. Nach einer Inkubationszeit von 15 min wird die Reaktion durch Zugabe von 20 µmol/l Fluoreszenz-Substanz ((7-Methoxycoumarin-4-yl)acetyl-pro-Leu-Gly-Leu-[3-(2',4'-dinitrophenyl)-L-2,3-diaminopropionyl]-Ala-Arg-NH₂; Bachem, Heidelberg, Deutschland, Kat. Nr.: M-1895) gestartet. Die Reaktion wird nach 30 min durch Zugabe von 10 mmol/l EDTA beendet. Das Gesamtvolumen des Ansatzes beträgt 320 µl. Als Meßparameter dienen die Fluoreszenzintensitäten bei λex: 328 nm und […]. Um die mögliche Eigenfluoreszens der Prüfsubstanzen zu berücksichtigen, werden die Fluoreszenzintensitäten von Parallel-Messungen ohne Substrat von den Messwerten mit Substrat abgezogen. Alle Operationen erfolgen bei 20°C. Im Kontrollexperiment ohne Hemmstoff wird die Fluoreszenz entsprechen 0 % Hemmung gesetzt, während völlige Auslöschung der Fluoreszenz 100 % Hemmung bedeutet.

Rattenlebermikrosomen = experiment: Inhibition of microsomal lipid peroxidation (malondialdehyde/thiobarbituric acid); type: biochemical, Ratte; settings: rat liver microsomes, FeSO₄ start, 10 min 37°C; read-out: IC50 Mikrosomale Lipidperoxidation
Experimental: 4. Hemmung der Mikrosomalen Lipidperoxidation […]
Alle Schritte werden bei 0°C durchgeführt. Die Leber einer Ratte wird, um alles Hämoglobin zu entfernen, mit 0,9 % NaCl-Lösung gründlich gespült. Die grob zerkleinerte Leber wird dann in 10 mM Tris/HCl pH 7,4; 250 mM Saccharose (10 ml Puffer/g Leber) gepottert. Zunächst wird 5 Minuten bei 600xg zentrifugiert. Der Überstand wird dann 10 min bei 12000xg zentrifugiert und wird mit festem CaCl₂ (117,6 mg/100 ml) auf eine Konzentration von 8 mM eingestellt. Durch Zentrifugieren bei 25000 xg (15 min) wird ein Mikrosomenniederschlag gewonnen. Dieser Niederschlag wird im gleichen Volumen Puffer (10 mM Tris/HCl pH 7,4; 150 mM KCl) rehomogenisiert und erneut 15 min bei 25000 xg zentrifugiert.
Ein Testansatz besteht aus 20 µl Mikrosomen (100 mg/ml), vgl. oben, gelöst in Puffer (250 mM Tris/HCl pH 6,6, 750 mM KCl), 10 µl 50 mM MgCl₂, 10 µl 200 mM Isocitronensäure, 10 µl 4mM NADP (3,028 mg/ml Wasser), 10 µl 25 mM Niacinamid, 10 µl Isocitratdehydrogenase (1:100 verdünnt) und 20 µl Wasser oder Testsubstanz. Gestartet wird die Reaktion mit 10 µl 0,25 mM FeSO₄. Die Inkubation dauert 10 Minuten und erfolgt bei 37°C. Gestoppt wird mit 500 µl eiskalter 20 %iger Trichloressigsäure. Entstandenes Malondialdehyd wird durch Zugabe von 500 µl 0,67 %iger Thiobarbitursäure und 30 Minuten Inkubation bei 90°C in eine pinkfarbene Verbindung überführt, die bei 532 nm gemessen wird. Die Extinktion im Kontrollansatz ohne Prüfpräparat wird auf 0 % Hemmung gesetzt, während das völlige Verschwinden des Signals 100 % Hemmung bedeutet.

IL-1beta = experiment: LPS-stimulated interleukin release from human mononuclear cells, ELISA (IL-1beta); type: cell-based; settings: 10 µmol/l, 20-22 h, read-out: % Hemmung der Interleukin-Freisetzung
Experimental: 5. Freisetzung von Interleukinen (insbesondere IL-1β) aus humanen mononuklearen Zellen
Die erfindungsgemäßen Verbindungen haben eine starke Hemmwirkung auf die Freisetzung von Interleukinen aus Humanzellen. Dies ist von großer pharmakologischer Bedeutung weil Interleukine die unerwünschte Degradation der Knorpelmatrix auslösen können.
10 ml Humanblut, stabilisiert mit 1 ml 3,8 %iger Natriumcitrat-Lösung, werden mit 10 ml PM16 (Serva, Heidelberg) verdünnt und mit 15 ml Lymphoprep (Dr. Molter GmbH, Heidelberg) unterschichtet. Die Proben werden 40 Minuten bei 400 xg (1600 rpm Minifuge 2, Heraeus, Osterode) zentrifugiert (Raumtemperatur). Die mononuklearen Zellen sind als weißer Ring an der Grenze Lymphoprep/Plasma sichtbar. Dieser Ring wird mit einer Spritze vorsichtig entnommen, mit dem gleichen Volumen PM16 verdünnt und 10 Minuten bei 400 xg zentrifugiert. Der Niederschlag wird mit ∼ 10 ml RPMI 1640 (+ 300 mg/l L-Glutamin, Gibco, Eggenstein) gewaschen. Nach Resuspendieren der Zellen in ∼ 1 ml RPMI 1640 (+ 300 mg/l L-Glutamin, + 25 mM HEPES, + 100 µg/ml Streptomycin, + 100 µg/ml Penicillin) wird die Zelldichte mit einem Coulter Counter JT (Coulter Diagnostics) bestimmt und auf 5 * 10⁶/ml eingestellt. Die Zellen bestehen typischerweise aus 90 % Lymphozyten und 10 % Monozyten.
230 µl mononukleare Zellen werden mit 10 µl Testsubstanz (10 µM in DMSO/Wasser 1/10) und 10 µl Lipopolysaccharide (500 µg gelöst in 1 ml Dimethylsulfoxid (DMSO) und vor Testbeginn 1/10 mit Wasser verdünnt, von Salmonella abortus equi, Sigma, Deisenhofen) 20-22 Stunden bei 37°C; 5 % CO₂ inkubiert. Die Proben werden in einem Eisbad auf 0°C abgekühlt und in einer Sigma-Zentrifuge zentrifugiert (2 Minuten; 2000 rpm). Aliquote des Überstandes werden mit einem kommerziell erhältlichen ELISA (Biermann, Bad Nauheim) bestimmt.

Chondrozyten [2] = experiment: IL-1-induced chondrocytic chondrolysis in chondrocyte agarose culture, 35S-sulfate incorporation; settings: agarose cell culture with 5 u/ml human rec. IL-1 alpha; factor relative to IL-1 treated control
Chondrozyten [3] = experiment: Stimulation of cartilage matrix (proteoglycan) synthesis in chondrocyte agarose culture, 35S-sulfate incorporation; type: cell-based, Rinder; settings: for fold induction at 10 µM: Chondrocyte, read-out: Stimulationsfaktor der Proteoglykansynthese
From the text: 1. Wirksamkeit in der Synthese-Stimulierung von Knorpel-Matrix, Prüfung in der Chondrozyten-Kultur
Zellen: Den Fußgelenken frisch geschlachteter Rinder werden der hyaline Knorpel entnommen, mit Pronase (Boehringer Mannheim) und Collagenase (Sigma), die native Matrix enzymatisch abgebaut, und die Chondrozyten in 1 %iger "low melting Agarose" in 24er Multiwell-Schalen in einer Zelldichte von 4 x 10⁶ pro well ausplattiert.
Medium: Komplettes Medium enthält HAM's F12 (Biochrom KG, Berlin) und 10 % foetales Kälberserum (Boehringer Mannheim), die Testsubstanz wird in Medium gelöst, üblicherweise in einer Konzentration von 10⁻⁵ M zugegeben und bei jedem Mediumwechsel erneut zugefügt.
Versuchsdurchführung: Die Behandlung erfolgt vom dritten bis zehnten Tag der Primärkultur, am 9. […] Die dissoziative Extraktion der Proteoglykane aus der Agarose-Schicht wird mit 8M Guanidinium-Hydrochlorid und beigefügten Proteinase-Inhibitoren (Sigma) unter Schütteln bei 4° C über 24 h durchgeführt. Der Überstand wird nach Zentrifugation über eine PD 10 ®Sephadex G 25 Säule in freies und inkorporiertes Sulfat getrennt, dessen Aktivität nach Aliquotierung im β-Szintillationscounter gemessen wird.
Auswertung: Der Parameter für die Matrixproduktion der Chondrozyten ist die Menge synthetisierter Proteoglykane, gemessen als Sulfatinkorporation in cpm. Aus vier Wells pro Gruppe wird der Mittelwert errechnet. Dieser wird durch den Mittelwert der unbehandelten Kontrolle dividiert, und ergibt somit einen Stimulationsfaktor, der bei Stimulation der Matrixsynthese größer 1 ist, bei Hemmung derselben durch Substanzwirkung kleiner 1, und bei unveränderter Matrixsynthese gleich 1 ist.
Als Standard wird Diacerein eingesetzt, das unter dem Markennamen "Artodar" von der Firma Proter bzw. […] Tabelle II

[4] = agarose cell culture, test substance usually 10⁻⁵ M, mean sulfate incorporation divided by untreated control (>1 = stimulation)

Compound | Hemmung der MMP ([1]; 30 µM) [%] | IC50 (Rattenlebermikrosomen) [µM] | inhibition at 10 µM (IL-1beta) [%] | Stimulationsfaktor der Proteoglykansynthese (Chondrozyten [2]) | other results
CCOP(C)(=O)C(Nc1ccc2c(c1)OCO2)c1cc(C(C)(C)C)c(O)c(C(C)(C)C)c1 (stereo not drawn) [Beispiel 59] | 43 |  |  |  | Hemmung der MMP ([1]; 10 µM): 19%
CCOP(=O)(OCC)C(Nc1ccc(C=CC(=O)OC)cc1)c1cc(C(C)(C)C)c(O)c(C(C)(C)C)c1 (stereo not drawn) [Beispiel 67] |  | 2.22 | 26 | 1,9 | 
CCCCNC(c1cc(C(C)(C)C)c(O)c(C(C)(C)C)c1)P(=O)(OCC)OCC (stereo not drawn) [Beispiel 6] |  | 2.25 |  | 1,4 | fold induction at 10 µM (Chondrozyten [3]): 1.2
CCOP(=O)(OCC)C(Nc1ccccn1)c1cc(C(C)(C)C)c(O)c(C(C)(C)C)c1 (stereo not drawn) [Beispiel 79] |  | 2.3 |  | 1,2 | fold induction at 10 µM (Chondrozyten [3]): 1.6
CCCOP(=O)(OCCC)C(NCc1ccc2c(c1)OCO2)c1cc(C(C)(C)C)c(O)c(C(C)(C)C)c1 (stereo not drawn) [Beispiel 2, 1-(3,4-Methylendioxybenzylamino)-1-(3,5-di-tert.butyl-4-hydroxy-phenyl)methanphosphonsäure-di-n-propylester-hydrochlorid] |  | 2.3 |  | 4,3 | fold induction at 10 µM (Chondrozyten [3]; [4]): 1.2
CCOP(=O)(OCC)C(Nc1ccc2c(c1)OCO2)c1cc(C(C)(C)C)c(O)c(C(C)(C)C)c1 (stereo not drawn) [Beispiel 61] |  |  | 24 | 1,3 | fold induction at 10 µM (Chondrozyten [3]): 2.9
CCOP(=O)(OCC)C(c1cc(C(C)(C)C)c(O)c(C(C)(C)C)c1)N(C)c1ccccc1 (stereo not drawn) [Beispiel 53] | 11 | 2.03 | 53 | 1,7 | Hemmung der MMP ([1]; 100 µM): 25%
CCCCOP(=O)(OCCCC)C(Nc1ccc(Cl)c(Cl)c1)c1cc(C(C)(C)C)c(O)c(C(C)(C)C)c1 (stereo not drawn) [Beispiel 49] |  | > 10 |  | 1,5 | fold induction at 10 µM (Chondrozyten [3]; [4]): 1.2
CCOP(=O)(OCC)C(Nc1ccc(NC(c2cc(C(C)(C)C)c(O)c(C(C)(C)C)c2)P(=O)(OCC)OCC)cc1)c1cc(C(C)(C)C)c(O)c(C(C)(C)C)c1 (stereo not drawn) [Beispiel 74] | 47 | 1.25 |  | 3,8 | Hemmung der MMP ([1]; 10 µM): 20%; Hemmung der MMP ([1]; 50 µM): 74%
CCCCOP(=O)(OCCCC)C(NCc1ccc2c(c1)OCO2)c1cc(C(C)(C)C)c(O)c(C(C)(C)C)c1 (stereo not drawn) [Beispiel 31] |  | 2.18 | 32 | 1,7 | 
1-(4-Chloranilino)-1-(3,5-di-tert.butyl-4-hydroxy-phenyl)-methanphosphonsäurediethylester [Beispiel 1] |  | 2.43 |  | 1,5 | Stimulationsfaktor der Proteoglykansynthese (Chondrozyten [3]; agarose cell culture, test substance usually 10⁻⁵ M, mean sulfate incorporation divided by untreated control (>1 = stimulation), 10 µM): 1,4
CCCCOP(=O)(OCCCC)C(Nc1ccc2c(c1)OCO2)c1cc(C(C)(C)C)c(O)c(C(C)(C)C)c1 (stereo not drawn) [Beispiel 63] | 60 | 0.24 | 31 | 1,5 | Hemmung der MMP ([1]; 10 µM): 26%
CCOP(=O)(OCC)C(Nc1ccc(F)cc1)c1cc(C(C)(C)C)c(O)c(C(C)(C)C)c1 (stereo not drawn) [Beispiel 38] |  |  |  | 1,3 | fold induction at 10 µM (Chondrozyten [3]): 1.7
CC(C)(C)c1cc(C(Nc2ccc3c(c2)OCO3)[PH](=O)O)cc(C(C)(C)C)c1O (stereo not drawn) [Beispiel 3] | 20 | 0.79 |  | 1,3 | Hemmung der MMP ([1]; 10 µM): 3%; Hemmung der MMP ([1]; 100 µM): 83%
